{
  "source": "patent US6812377B2",
  "about": "“Genetic engineering of syringyl-enriched lignin in plants” (Board of Control of Michigan Technological University, priority 2000, dated 2004)",
  "key": {"[1]": {"biological_target": "recombinant PtSAD protein (Populus tremuloides, UniProt Q94G59)", "sequence (Q94G59 entry or part of it)": "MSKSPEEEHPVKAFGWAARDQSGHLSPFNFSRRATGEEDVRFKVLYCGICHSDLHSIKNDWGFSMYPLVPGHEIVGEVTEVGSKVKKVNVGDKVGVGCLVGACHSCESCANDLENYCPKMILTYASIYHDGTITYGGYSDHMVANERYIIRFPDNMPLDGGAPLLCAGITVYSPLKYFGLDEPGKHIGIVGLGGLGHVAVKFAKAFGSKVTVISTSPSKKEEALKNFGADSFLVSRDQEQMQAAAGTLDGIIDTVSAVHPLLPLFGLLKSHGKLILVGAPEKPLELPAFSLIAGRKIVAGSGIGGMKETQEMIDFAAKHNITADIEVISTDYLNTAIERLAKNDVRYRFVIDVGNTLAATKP", "assay": "Kinetic properties of the recombinant PtSAD protein (HPLC-UV/MS)", "type": "biochemical", "conditions": "substrate of PtSAD; relative, sinapaldehyde = 100", "experimental": "(§1) To characterize the enzyme pH optima, the substrate and recombinant PtCAD or PtSAD protein concentrations described above were used in sodium phosphate buffers, pH 5 to 8.5. […] For inhibition kinetics, the PtCAD-mediated reduction of sinapaldehyde (1 to 200 μM) was assayed in the presence of 1 to 5 μM coniferaldehyde, and the PtSAD-catalyzed reduction of coniferaldehyde (1 to 200 μM) was assayed in the presence of 1 to 5 μM sinapaldehyde. All reactions were terminated by the addition of 10 μL of 6 N HCI (to bring the pH to 2) and 500 ng of internal standard o-coumaric acid and analyzed by HPLC-UV/MS. An aliquot of 100 μL of reaction mixture was injected directly onto a Supelcosil LC-ABZ column (15 cm×4.6 mm×5 μm; Supelco, Bellefonte, Pa.) with automatic sample injection and separated isocratically with a Hewlett-Packard (HP) 1100 liquid chromatography system at 40° C. and a flow rate of 0.25 mL/min. […] The reaction products were identified and confirmed by comparing the ion fragmentation patterns of the product and the authentic standard in MS scanning mode at 70 V. The product quantity and Km, Vmax, kcat, and apparent inhibition constant (Ki) values (means±SE) were determined as described (Osakabe et al., 1999; Li et al., 2000). The results of the inhibition kinetics for both the CAD enzyme (i.e. Table 2) and the SAD enzyme (i.e., Table 3) using a variety of substrates are illustrated below."}, "[2]": {"system": "PtSAD recombinant protein", "assay": "SAD enzyme activity assay, single and mixed substrates (HPLC-MS)", "type": "biochemical, Populus tremuloides", "conditions": "mixture of coniferaldehyde and sinapaldehyde, pH 7.0", "experimental": "After 10 min at 30° C., the reaction was terminated and extracted with 0.5 ml ethyl acetate. The extraction was repeated 4 times and the combined ethyl acetate was evaporated and dissolved in the HPLC mobile phase for LC-MS identification and quantitation of the reaction products as we did before (Osakabe et al., 1999; Li et al. 2000). […] The SAD reactions with mixed substrates, sinapaldehyde and coniferyl aldehyde, were therefore conducted at the optimal pH 7.0 under above-described conditions. […] To characterize the enzyme pH optima, the substrate and recombinant PtCAD or PtSAD protein concentrations described above were used in sodium phosphate buffers, pH 5 to 8.5. All reactions were for 10 minutes at 30° C. An aliquot of 100 μL of reaction mixture was injected directly onto a Supelcosil LC-ABZ column (15 cm×4.6 mm×5 μm; Supelco, Bellefonte, Pa.) with automatic sample injection and separated isocratically with a Hewlett-Packard (HP) 1100 liquid chromatography system at 40° C. and a flow rate of 0.25 mL/min. […] The reaction products were identified and confirmed by comparing the ion fragmentation patterns of the product and the authentic standard in MS scanning mode at 70 V. The product quantity and Km, Vmax, kcat, and apparent inhibition constant (Ki) values (means±SE) were determined as described (Osakabe et al., 1999; Li et al., 2000). The results of the inhibition kinetics for both the CAD enzyme (i.e. Table 2) and the SAD enzyme (i.e., Table 3) using a variety of substrates are illustrated below."}, "[3]": {"biological_target": "recombinant PtCAD protein (Populus tremuloides, UniProt Q9M632)", "sequence (Q9M632 entry or part of it)": "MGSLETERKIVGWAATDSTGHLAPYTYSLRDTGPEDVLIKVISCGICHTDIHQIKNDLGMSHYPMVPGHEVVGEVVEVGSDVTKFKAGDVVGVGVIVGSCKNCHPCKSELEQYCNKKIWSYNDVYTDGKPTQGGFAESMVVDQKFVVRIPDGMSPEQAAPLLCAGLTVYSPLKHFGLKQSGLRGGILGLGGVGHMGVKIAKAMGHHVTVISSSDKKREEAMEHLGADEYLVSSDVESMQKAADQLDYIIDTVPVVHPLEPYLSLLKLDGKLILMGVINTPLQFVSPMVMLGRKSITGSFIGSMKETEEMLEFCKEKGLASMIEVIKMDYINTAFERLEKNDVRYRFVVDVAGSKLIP", "assay": "Kinetic properties of the recombinant PtCAD protein (HPLC-UV/MS)", "type": "biochemical", "conditions": "substrate of PtCAD; relative, coniferaldehyde = 100", "experimental": "as §1"}},
  "data": [
    {"molecule": "COc1cc(/C=C/C=O)ccc1O", "note": "[Coniferaldehyde]", "values": [
      {"measurement": "Vmax/Km", "setting": "[1]", "result": 26.6, "unit": "%"},
      {"measurement": "reaction of PtSAD with the substrate in a mixture", "setting": "[2]", "result": "would not react"},
      {"measurement": "Vmax/Km", "setting": "[3]", "result": 100, "unit": "%"}
    ]}
  ]
}
